Converted amounts (≈) assume the structure as drawn. Read-outs that look alike come from different tables or passages of the source.
Assays:
Candida albicans = experiment: checkerboard drug interaction (FICI, MICc);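 for all read-outs here: antifungal plus FPPS inhibitor combinations on Candida albicans tested by a simplified diagonal checkerboard screen, with FICI calculated under the Loewe additivity model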; type: cell-based; conditions: C. albicans; for INH FD (MIC-MICc fold decrease): fold decrease of inhibitor MIC
Experimental: (§1) Drug interactions between antifungals and FPPS inhibitors were investigated using a simplified checkerboard diagonal screening method ([45]). […] FICIs were determined according to the Loewe additivity model ([17]).

Aspergillus flavus [1] = experiment: checkerboard drug interaction (FICI, MICc);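 note: simplified diagonal checkerboard screen pairing azole antifungals with FPPS inhibitors, FICI calculated under the Loewe additivity model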; type: cell-based; parameters: INH MICc (KET:INH) / INH MICc (FLC:INH): unit not given beside the values; conditions: A. flavus
Aspergillus fumigatus [2] = experiment: checkerboard drug interaction (FICI, MICc); type: cell-based;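 note: simplified diagonal checkerboard screen pairing antifungals with FPPS inhibitors against Aspergillus fumigatus, with FICI calculated under the Loewe additivity model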
Experimental: as §1

Trichophyton rubrum [3] = experiment: checkerboard drug interaction (FICI, MICc);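 note: simplified diagonal checkerboard screen pairing azole antifungals with FPPS inhibitors, FICI calculated under the Loewe additivity model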; type: cell-based; conditions: T. rubrum
Experimental: as §1

HEK-293T cells = experiment: MTT reduction cytotoxicity assay; type: cell-based; conditions: Homo sapiens, HEK-293T, 72 h, MTT, 72 h
eight fungal species [4] = experiment: MIC/MFC summary across the eight fungal species of Table 1; type: cell-based
Experimental: The antifungal activity of these compounds was evaluated according to CLSI guidelines ([16]).

eight fungal species [5] = experiment: checkerboard interaction with azoles, summary across the eight species; type: cell-based; conditions: geometric mean MIC in combination with azoles
Description: Synergy between lipophilic FPPS inhibitors and azole antifungals was investigated by determining the fractional inhibitory concentration index (FICI) (Fig. 2; Table S1 Fig. S1) ([17]). […]. Derivatives PLA9 and 11, and PDA9, 11, and 12 antagonized azoles in C. albicans, C. neoformans, and C. deuterogattii, yet were largely synergistic in C. glabrata and S. cerevisiae. […].

[6] = tested on: Cryptococcus deuterogattii; experiment: MIC/MFC broth microdilution (CLSI); conditions: Cryptococcus deuterogattii;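 note: broth microdilution per CLSI M27-Ed4. MFC is the lowest concentration yielding no colonies when MIC broths are subcultured onto SDA plates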
Experimental: (§2) Antifungal susceptibility was determined by broth microdilution according to the CLSI guidelines described in M27-Ed4 ([16]). […] MFC was determined by back-plating drug-treated cultures from MIC broths onto SDA plates. The MFC was defined as the lowest concentration from which no colonies could be cultured.

Cryptococcus neoformans = experiment: MIC/MFC broth microdilution (CLSI); conditions: Cryptococcus neoformans;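 note: susceptibility testing followed the CLSI M27-Ed4 broth microdilution document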
Experimental: as §2

Candida glabrata = experiment: MIC/MFC broth microdilution (CLSI); conditions: Nakaseomyces glabratus, CBS138;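 note: broth microdilution following CLSI M27-Ed4, MFC taken as the lowest drug level yielding no growth once MIC wells were subcultured on SDA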
Experimental: as §2

Aspergillus flavus [7] = experiment: MIC/MFC broth microdilution (CLSI); conditions: ATCC204304
Experimental: as §2

Aspergillus fumigatus [8] = experiment: MIC/MFC broth microdilution (CLSI); conditions: ATCC204305
Experimental: as §2

Trichophyton rubrum [9] = experiment: MIC/MFC broth microdilution (CLSI); conditions: Trichophyton rubrum
Experimental: as §2

[10] = Fractional Inhibitory Concentration Index, fluconazole + inhibitor
[11] = Fractional Inhibitory Concentration Index, itraconazole + inhibitor
[12] = Fractional Inhibitory Concentration Index, ketoconazole + inhibitor
[13] = MIC of the inhibitor in combination with fluconazole
[14] = MIC of the inhibitor in combination with itraconazole
[15] = MIC of the inhibitor in combination with ketoconazole
[16] = MIC-MICc fold decrease of fluconazole, negative = increase
[17] = MIC-MICc fold decrease of itraconazole, negative = increase
[18] = MIC-MICc fold decrease of ketoconazole, negative = increase
[19] = MIC-MICc fold decrease of the inhibitor, with fluconazole
[20] = MIC-MICc fold decrease of the inhibitor, with itraconazole
[21] = MIC-MICc fold decrease of the inhibitor, with ketoconazole

CCCCCCCCCCCCN1CCC[C@H]1C(=O)N[C@@H](CC(=O)OC)C(=O)OC [dmPLA12]
INH FD (MIC-MICc fold decrease) (Candida albicans; ITR:INH combination): 4 | FICI (Candida albicans; KET:INH combination): 2.13 | INH MICc (Candida albicans; KET:INH combination, MIC of the inhibitor in combination with KET): 16 | KET FD (MIC-MICc fold decrease) (Candida albicans; KET:INH combination, fold decrease of KET MIC): -2 | INH FD (MIC-MICc fold decrease) (Candida albicans; KET:INH combination): 8 | FICI (FLC:INH) (Aspergillus flavus [1]; [10]): 1.5 | FICI (ITR:INH) (Aspergillus flavus [1]; [11]): 0.5 | FICI (KET:INH) (Aspergillus flavus [1]; [12]): 0.52 | INH MICc (FLC:INH) (Aspergillus flavus [1]; [13]): 128 | INH MICc (ITR:INH) (Aspergillus flavus [1]; [14]): 64 | INH MICc (KET:INH) (Aspergillus flavus [1]; [15]): 4 | FLC FD (FLC:INH) (Aspergillus flavus [1]; [16]): 1 | ITR FD (ITR:INH) (Aspergillus flavus [1]; [17]): 4 | KET FD (KET:INH) (Aspergillus flavus [1]; [18]): 2 | INH FD (FLC:INH) (Aspergillus flavus [1]; [19]): 2 | INH FD (ITR:INH) (Aspergillus flavus [1]; [20]): 4 | INH FD (KET:INH) (Aspergillus flavus [1]; [21]): 64 | FICI (FLC:INH) (Aspergillus fumigatus [2]; [10]): 1.5 | FICI (ITR:INH) (Aspergillus fumigatus [2]; [11]): 0.52 | FICI (KET:INH) (Aspergillus fumigatus [2]; [12]): 1 | INH MICc (FLC:INH) (Aspergillus fumigatus [2]; [13]): 128 | INH MICc (ITR:INH) (Aspergillus fumigatus [2]; [14]): 2 | INH MICc (KET:INH) (Aspergillus fumigatus [2]; [15]): 64 | FLC FD (FLC:INH) (Aspergillus fumigatus [2]; [16]): 2 | ITR FD (ITR:INH) (Aspergillus fumigatus [2]; [17]): 2 | KET FD (KET:INH) (Aspergillus fumigatus [2]; [18]): 2 | INH FD (FLC:INH) (Aspergillus fumigatus [2]; [19]): 1 | INH FD (ITR:INH) (Aspergillus fumigatus [2]; [20]): 64 | INH FD (KET:INH) (Aspergillus fumigatus [2]; [21]): 2 | FICI (FLC:INH) (Trichophyton rubrum [3]; [10]): 1.13 | FICI (ITR:INH) (Trichophyton rubrum [3]; [11]): 1.06 | FICI (KET:INH) (Trichophyton rubrum [3]; [12]): 1.13 | INH MICc (FLC:INH) (Trichophyton rubrum [3]; [13]): 16 | INH MICc (ITR:INH) (Trichophyton rubrum [3]; [14]): 16 | INH MICc (KET:INH) (Trichophyton rubrum [3]; [15]): 16 | FLC FD (FLC:INH) (Trichophyton rubrum [3]; [16]): 8 | ITR FD (ITR:INH) (Trichophyton rubrum [3]; [17]): 16 | KET FD (KET:INH) (Trichophyton rubrum [3]; [18]): 8 | INH FD (FLC:INH) (Trichophyton rubrum [3]; [19]): 1 | INH FD (ITR:INH) (Trichophyton rubrum [3]; [20]): 1 | INH FD (KET:INH) (Trichophyton rubrum [3]; [21]): 1 | IC50 (HEK-293T cells; HEK-293T cells, read-out: IC50): 2.01 µg/mL (≈ 4.72 µM) | IC50 (HEK-293T cells; read-out: HEK IC50): 2.01 µg/mL (≈ 4.72 µM) | MFC (eight fungal species [4]; across eight species, read-out: Geometric mean MFC): 69.8 µg/mL (≈ 164 µM) | MIC (eight fungal species [4]; geometric mean across eight species, read-out: GM fungal MIC): 38.1 µg/mL (≈ 89.3 µM) | MIC (eight fungal species [4]; read-out: Geometric mean MIC): 38.1 µg/mL (≈ 89.3 µM) | GM fungal MICc (eight fungal species [5]): 11.3 | MFC [6]: 8 µg/mL (≈ 18.8 µM) | MIC [6]: 8 µg/mL (≈ 18.8 µM) | MFC (Cryptococcus neoformans): 16 µg/mL (≈ 37.5 µM) | MIC (Cryptococcus neoformans): 16 µg/mL (≈ 37.5 µM) | MFC (Candida glabrata): > 128 µg/mL | MIC (Candida glabrata): > 128 µg/mL | MFC (Aspergillus flavus [7]): > 128 µg/mL | MIC (Aspergillus flavus [7]): > 128 µg/mL | MFC (Aspergillus fumigatus [8]): > 128 µg/mL | MIC (Aspergillus fumigatus [8]): 32 µg/mL (≈ 75 µM) | MFC (Trichophyton rubrum [9]): > 128 µg/mL | MIC (Trichophyton rubrum [9]): 16 µg/mL (≈ 37.5 µM)
